Results from patent publication US8975401B2, “Quinazoline based EGFR inhibitors containing a zinc binding moiety” (Curis, Inc., priority 2006, dated 2015).

Biological target: T1, human EGFR (His672-Ala1210) (Homo sapiens, UniProt P00533)
T1 construct: human EGFR (His672-Ala1210); GST (N); purchased Cell Signaling Technologies; host or cells: baculovirus expression system
Test: HTScan EGF Receptor Kinase Assay
Type: biochemical
Protocol: The ability of compounds to inhibit receptor kinase (EGFR) activity was assayed using HTSCAN™ EGF Receptor Kinase Assay Kits (Cell Signaling Technologies, Danvers, Mass.). […] The protein was purified by one-step affinity chromatography using glutathione-agarose.
Immediately transfer enzyme from −80° C. to ice. Allowed enzyme to thaw on ice. […] Returned immediately to ice. […] Incubated reaction plate at room temperature for 30 minutes. […] Added 100 μl/well primary antibody. Incubated at room temperature for 60 minutes. […] Added 100 μl/well diluted antibody. Incubated at room temperature for 30 minutes. […] Incubated at room temperature for 5 minutes.

T1 sequence (P00533 672-1210): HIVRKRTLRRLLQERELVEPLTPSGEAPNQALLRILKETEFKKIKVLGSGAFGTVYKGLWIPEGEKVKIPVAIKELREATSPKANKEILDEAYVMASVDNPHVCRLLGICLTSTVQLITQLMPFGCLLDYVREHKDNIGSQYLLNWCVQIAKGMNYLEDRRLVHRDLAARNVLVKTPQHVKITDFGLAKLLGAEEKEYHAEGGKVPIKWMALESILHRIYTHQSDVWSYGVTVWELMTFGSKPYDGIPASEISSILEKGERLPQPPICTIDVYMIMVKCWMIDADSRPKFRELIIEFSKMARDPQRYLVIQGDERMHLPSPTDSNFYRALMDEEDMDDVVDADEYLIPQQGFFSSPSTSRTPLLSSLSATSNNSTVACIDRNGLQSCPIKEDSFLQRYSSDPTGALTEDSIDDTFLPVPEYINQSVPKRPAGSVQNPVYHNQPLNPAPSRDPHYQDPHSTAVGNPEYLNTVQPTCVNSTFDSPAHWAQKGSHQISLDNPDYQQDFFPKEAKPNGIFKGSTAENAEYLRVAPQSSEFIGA

IC50	SMILES
< 100 nM	COc1cc2ncnc(Nc3ccc(F)c(Cl)c3)c2cc1OCC(=O)NO [Compound 1, 2-(4-(3-Chloro-4-fluorophenylamino)-7-methoxyquinazolin-6-yloxy)-N-hydroxyacetamide]
< 100 nM	COc1cc2ncnc(Nc3ccc(F)c(Cl)c3)c2cc1OCCCCC(=O)NO [Compound 4]
< 100 nM	C#Cc1cccc(Nc2ncnc3cc(OC)c(OCC(=O)NO)cc23)c1 [Compound 7, 2-(4-(3-ethynylphenylamino)-7-methoxyquinazolin-6-yloxy)-N-hydroxyacetamide]
< 100 nM	C#Cc1cccc(Nc2ncnc3cc(OC)c(OCCC(=O)NO)cc23)c1 [Compound 8]
< 100 nM	C#Cc1cccc(Nc2ncnc3cc(OC)c(OCCCC(=O)NO)cc23)c1 [Compound 9, 4-(4-(3-ethynylphenylamino)-7-methoxyquinazolin-6-yloxy)-N-hydroxybutanamide]
< 100 nM	O=C(COc1ccc2ncnc(Nc3ccc(F)c(Cl)c3)c2c1)NO [Compound 13, 2-(4-(3-chloro-4-fluorophenylamino)quinazolin-6-yloxy)-N-hydroxyacetamide]
< 100 nM	O=C(CCOc1ccc2ncnc(Nc3ccc(F)c(Cl)c3)c2c1)NO [Compound 14]
< 100 nM	O=C(CCCCOc1ccc2ncnc(Nc3ccc(F)c(Cl)c3)c2c1)NO [Compound 16, 5-(4-(3-chloro-4-fluorophenylamino)quinazolin-6-yloxy)-N-hydroxypentanamide]
< 100 nM	O=C(CCCCCOc1ccc2ncnc(Nc3ccc(F)c(Cl)c3)c2c1)NO [Compound 17, 6-(4-(3-chloro-4-fluorophenylamino)quinazolin-6-yloxy)-N-hydroxy hexanamide]
< 100 nM	C#Cc1cccc(Nc2ncnc3ccc(OCC(=O)NO)cc23)c1 [Compound 19, 2-(4-(3-ethynylphenylamino)quinazolin-6-yloxy)-N-hydroxyacetamide]
100 to 1000 nM	C#Cc1cccc(Nc2ncnc3ccc(OCCCC(=O)NO)cc23)c1 [Compound 21, 4-(4-(3-ethynylphenylamino)quinazolin-6-yloxy)-N-hydroxybutanamide]
< 100 nM	C#Cc1cccc(Nc2ncnc3ccc(OCCCCC(=O)NO)cc23)c1 [Compound 22]
100 to 1000 nM	C#Cc1cccc(Nc2ncnc3ccc(OCCCCCC(=O)NO)cc23)c1 [Compound 23, 6-(4-(3-ethynylphenylamino)quinazolin-6-yloxy)-N-hydroxyhexanamide]
100 to 1000 nM	C#Cc1cccc(Nc2ncnc3ccc(OCCCCCCC(=O)NO)cc23)c1 [Compound 24, 7-(4-(3-ethynylphenylamino)quinazolin-6-yloxy)-N-hydroxyheptanamide]
< 100 nM	C#Cc1cccc(Nc2ncnc3cc(OCCOC)c(OCCCCCCC(=O)NO)cc23)c1 [Compound 36, 7-(4-(3-Ethynylphenylamino)-7-(2-methoxyethoxy)quinazolin-6-yloxy)-N-hydroxyheptanamide]
< 100 nM	COc1cc2ncnc(Nc3ccc(F)c(Cl)c3)c2cc1NC(=O)CCCC(=O)NO [Compound 38, N^1-(4-(3-chloro-4-fluorophenylamino)-7-methoxyquinazolin-6-yl)-N^5-hydroxyglutaramide]
< 100 nM	C#Cc1cccc(Nc2ncnc3cc(OC)c(NC(=O)CCCC(=O)NO)cc23)c1 [Compound 42, N^1-(4-(3-ethynylphenylamino)-7-methoxyquinazolin-6-yl)-N^5-hydroxyglutaramide]
< 100 nM	C#Cc1cccc(Nc2ncnc3cc(OC)c(NC(=O)CCCCC(=O)NO)cc23)c1 [Compound 43, N^1-(4-(3-ethynylphenylamino)-7-methoxyquinazolin-6-yl)-N^6-hydroxyadipamide]
< 100 nM	C#Cc1cccc(Nc2ncnc3cc(OC)c(NC(=O)CCCCCCC(=O)NO)cc23)c1 [Compound 44, N^1-(4-(3-ethynylphenylamino)-7-methoxyquinazolin-6-yl)-N^8-hydroxyoctanediamide]
100 to 1000 nM	Nc1cc(Br)ccc1NC(=O)COc1ccc2ncnc(Nc3ccc(F)c(Cl)c3)c2c1 [Compound 45]
100 to 1000 nM	C[C@@H](Nc1ncnc2ccc(OCCCCCC(=O)NO)cc12)c1ccccc1 [Compound 50]
< 100 nM	COc1cc2ncnc(Nc3ccc(F)c(Cl)c3)c2cc1OCCOc1ccc(/C=C/C(=O)NO)cc1 [Compound 66, (E)-3-(4-(2-(4-(3-chloro-4-fluorophenylamino)-7-methoxyquinazolin-6-yloxy)ethoxy)phenyl)-N-hydroxyacrylamide]
< 100 nM	COCCOc1cc2ncnc(Nc3ccc(F)c(Cl)c3)c2cc1NC(=O)CCCC(=O)NO [Compound 68, N^1-(4-(3-chloro-4-fluorophenylamino)-7-(2-methoxyethoxy)quinazolin-6-yl)-N^5-hydroxyglutaramide]
< 100 nM	COCCOc1cc2ncnc(Nc3ccc(F)c(Cl)c3)c2cc1NC(=O)CCCCC(=O)NO [Compound 69, N^1-(4-(3-chloro-4-fluorophenylamino)-7-(2-methoxyethoxy)quinazolin-6-yl)-N^6-hydroxyadipamide]
< 100 nM	C#Cc1cc(Nc2ncnc3cc(OC)c(OCCCCCCC(=O)NO)cc23)ccc1F [Compound 75, 7-(4-(3-ethynyl-4-fluorophenylamino)-7-methoxyquinazolin-6-yloxy)-N-hydroxyheptanamide]
< 100 nM	C#Cc1cc(Nc2ncnc3cc(OCCOC)c(OCCCCCCC(=O)NO)cc23)ccc1F [Compound 76]
< 100 nM	COc1cc2ncnc(N[C@H](C)c3ccccc3)c2cc1OCCCCCC(=O)NO [Compound 77, (R)—N-hydroxy-6-(7-methoxy-4-(1-phenylethylamino)quinazolin-6-yloxy)-hexanamide]

SMILES	IC50
COc1cc2ncnc(Nc3ccc(F)c(Cl)c3)c2cc1OCCC(=O)NO [Compound 2]	< 100 nM
COc1cc2ncnc(Nc3ccc(F)c(Cl)c3)c2cc1OCCCC(=O)NO [Compound 3, 4-(4-(3-Chloro-4-fluorophenylamino)-7-methoxyquinazolin-6-yloxy)-N-hydroxybutanamide]	< 100 nM
COc1cc2ncnc(Nc3ccc(F)c(Cl)c3)c2cc1OCCCCCC(=O)NO [Compound 5]	< 100 nM
C#Cc1cccc(Nc2ncnc3cc(OC)c(OCCCCCC(=O)NO)cc23)c1 [Compound 11, 6-(4-(3-ethynylphenylamino)-7-methoxyquinazolin-6-yloxy)-N-hydroxyhexanamide]	< 100 nM
O=C(CCCCCCOc1ccc2ncnc(Nc3ccc(F)c(Cl)c3)c2c1)NO [Compound 18, 7-(4-(3-chloro-4-fluorophenylamino)quinazolin-6-yloxy)-N-hydroxyheptanamide]	< 100 nM
COCCOc1cc2ncnc(Nc3ccc(F)c(Cl)c3)c2cc1OCCCCCCC(=O)NO [Compound 30, 7-(4-(3-Chloro-4-fluorophenylamino)-7-(2-methoxyethoxy)quinazolin-6-yloxy)-N-hydroxyheptanamide]	< 100 nM
COc1cc2ncnc(Nc3ccc(F)c(Cl)c3)c2cc1NC(=O)CCCCCCC(=O)NO [Compound 40, N^1-(4-(3-chloro-4-fluorophenylamino)-7-methoxyquinazolin-6-yl)-N^8-hydroxyoctanediamide]	< 100 nM
COc1cc2ncnc(N[C@H](C)c3ccc(F)cc3)c2cc1OCCCCCCC(=O)NO [Compound 81, (R)-7-(4-(1-(4-fluorophenyl)ethylamino)-7-methoxyquinazolin-6-yloxy)-N-hydroxyheptanamide]	100 to 1000 nM
